US20260325473A1, “N-Beta-Hydroxybutyryl-Amino Acids and Related Compositions and Methods” (The Board of Trustees of the Leland Stanford Junior …, priority 2023, published 2026)

Assays:
DIO mice = assay: Chronic administration in DIO mice: body weight and food intake; format: in vivo, mouse; details: for body weight, head-to-head keto amino acids: 5 days, vs vehicle
Experimental: General animal information. Animal experiments were performed according to procedure approved by the Stanford University Administrative Panel on Laboratory Animal Care (APLAC). Mice were maintained in 12-hr light-dark cycles at 22° C. and ~50% relative humidity and fed a standard irradiated rodent chow diet. Where indicated, high-fat diet (D12492, Research Diets 60% kcal from fat) and ketogenic diet (D06040601, Research Diets, 80% kcal fat/15% kcal protein/5% kcal carbohydrate) was used. Male C57BL/6J (stock no. 000664) and male C57BL/6J DIO mice (stock no. 380050) were purchased from Jackson Laboratory. Male C57BL/6NCrl (stock no. 027) mice were purchased from Charles River Laboratory. Whole body CNDP2-KO mice (catalog number, C57BL/6NCrl-Cndp2em1 (IMPC) Mbp/Mmucd, RRID: MMRRC_043492-UCD) were obtained from the Mutant Mouse Regional Resource Center, a NCRR-NIH funded strain repository. For in vivo injection of mice with metabolites, compounds were dissolved in 18:1:1 (by volume) of saline/Kolliphor EL (Sigma Aldrich)/DMSO. Compounds were administered to mice daily via intraperitoneal injections at 5 μl/g body weight at the indicated doses. For all injection experiments, mice were mock injected with the vehicle for 3-5 days until body weights have stabilized. Sample sizes were determined on the basis of previous experiments using similar methodologies. For metabolite administration experiments, mice were randomly assigned to treatment groups. Experimenters were not blinded to groups.

CNDP2 = molecular target: T1, CNDP2 (Mus musculus, UniProt Q9D1A2); assay: In situ live cell enzyme activity assay, CNDP2- or GFP-transfected HEK293T cells; format: cell-based; parameters: expressed in transfected cells; host or cells: HEK293T (lysate); details: role: product; BHB-treated; conditioned media
T1 sequence (Q9D1A2 1-475): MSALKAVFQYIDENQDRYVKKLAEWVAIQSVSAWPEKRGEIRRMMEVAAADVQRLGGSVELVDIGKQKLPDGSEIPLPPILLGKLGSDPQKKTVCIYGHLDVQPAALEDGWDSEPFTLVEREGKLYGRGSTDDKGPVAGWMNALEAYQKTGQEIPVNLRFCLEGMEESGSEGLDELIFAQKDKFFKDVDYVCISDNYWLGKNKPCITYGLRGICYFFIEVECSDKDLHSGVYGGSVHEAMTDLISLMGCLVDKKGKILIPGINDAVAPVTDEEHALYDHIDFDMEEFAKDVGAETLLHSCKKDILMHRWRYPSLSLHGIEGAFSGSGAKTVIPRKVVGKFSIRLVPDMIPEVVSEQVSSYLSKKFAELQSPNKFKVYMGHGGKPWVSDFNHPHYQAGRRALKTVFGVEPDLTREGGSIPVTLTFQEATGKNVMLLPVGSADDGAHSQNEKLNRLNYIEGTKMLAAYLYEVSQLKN
Experimental: Cellular enzyme activity assays. Cells were plated in 12-well plates at 70-80% confluence. The next day, cells were washed two times with PBS and incubated in 0.5 ml serum-free medium. After overnight incubation, 400 μl of medium was removed and 20 μl of 1 M HCl were added to acidify the medium and to protonate keto amino acids. Ethyl acetate (400 μl) was added into each sample and reactions were vortexed for 30 s to extract keto amino acids into the organic layer. Reactions were centrifuged at 4° C. for 10 min at 15,000 r.p.m. and total of 300 μl from the top layer was transferred to a new Eppendorf tube and dried down under a stream of nitrogen. The residue was re-suspended in 150 μl of an 2:1:1 mixture of acetonitrile: methanol: water. The mixture was centrifuged at 4° C. for 10 min at 15,000 r.p.m. and the supernatant was transferred to a LC-MS vial. Cells were kept on ice to collect the lysate. PBS (150 μl) was added into each well and the cells scraped into an Eppendorf tube. This step was repeated again to ensure all cells were collected. Cells were then centrifuged at 4° C. for 10 min at 2,000g and the supernatant removed to obtain the cell pellet. A volume of 150 μl of a 2:1:1 mixture of acetonitrile: methanol:water mixture was used to lyse the cells and precipitate large proteins. […]

| SMILES | food intake and body weight, related metabolites and dipeptides (DIO mice; 50 mg/kg IP, 9 days) | body weight and food intake, conjugate vs components (DIO mice; 50 mg/kg/day IP, BHB or phenylalanine at the same doses, 9 days) | body weight gain, 2-week study (DIO mice; 50 mg/kg/day IP, 2 weeks) | daily food intake, 2-week study (DIO mice; 50 mg/kg/day IP, 2 weeks) | body weight gain (DIO mice; 50 mg/kg/day IP, 10-day period) | suppression of daily food intake, average (DIO mice; 50 mg/kg/day IP, 10-day period) [%] | body weight, head-to-head keto amino acids (DIO mice; 50 mg/kg/day IP) | weight loss compared with pair-fed controls (DIO mice; 50 mg/kg/day IP, 6 days) | keto amino acid production in CNDP2-transfected live cells (CNDP2) |
| --- | --- | --- | --- | --- | --- | --- | --- | --- | --- |
| CC(O)CC(=O)N[C@@H](Cc1ccccc1)C(=O)O (some centres unmarked) [BHB-Phe, N-betahydroxybutyryl-phenylalanine] | suppressed food intake and body weight | efficiently suppressed body weight and food intake | concomitant reduction in body weight gain | durable suppression of daily food intake | concomitant reduction in body weight gain | −30 | effective in suppressing body weight | lost the same amount of weight as pair-fed controls | robust production |
| CC(O)CC(=O)N[C@H](C(=O)O)C(C)C (some centres unmarked) [BHB-Val, N-betahydroxybutyryl-valine] |  |  |  |  |  |  | effective in suppressing body weight |  | robust production |
